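Growth conditions: 96-well plates. Treatment: test compound, 48 hours, 5 concentrations. Analysis: linear interpolation between bracketing concentrations; unreached endpoints set to highest concentration. The concentration for full growth arrest is given as TGI.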
Columns and labels:
Test in all cases: growth of human tumour cells (NCI), 48 h
786-0 renal = test system: 786-0 renal
A498 renal = test system: A498 renal
A549 NSCLC = test system: A549 NSCLC
ACHN renal = test system: ACHN renal
CAKI-1 renal = test system: CAKI-1 renal
CCRF-CEM leukemia = test system: CCRF-CEM leukemia
COLO 205 colon = test system: COLO 205 colon
DLD-1 colon = test system: DLD-1 colon
DMS 114 small cell lung = test system: DMS 114 small cell lung
DMS 273 small cell lung = test system: DMS 273 small cell lung
EKVX NSCLC = test system: EKVX NSCLC
HCC-2998 colon = test system: HCC-2998 colon
HCT-116 colon = test system: HCT-116 colon
HCT-15 colon = test system: HCT-15 colon
HL-60(TB) leukemia = test system: HL-60(TB) leukemia
HOP-18 NSCLC = test system: HOP-18 NSCLC
HOP-62 NSCLC = test system: HOP-62 NSCLC
HOP-92 NSCLC = test system: HOP-92 NSCLC
HT29 colon = test system: HT29 colon
IGROV1 ovarian = test system: IGROV1 ovarian
K-562 leukemia = test system: K-562 leukemia
KM12 colon = test system: KM12 colon
KM20L2 colon = test system: KM20L2 colon
LOX IMVI melanoma = test system: LOX IMVI melanoma
LXFL 529 NSCLC = test system: LXFL 529 NSCLC
M14 melanoma = test system: M14 melanoma
M19-MEL melanoma = test system: M19-MEL melanoma
MALME-3M melanoma = test system: MALME-3M melanoma
MOLT-4 leukemia = test system: MOLT-4 leukemia
NCI-H226 lung = test system: NCI-H226 lung
NCI-H23 lung = test system: NCI-H23 lung
NCI-H460 lung = test system: NCI-H460 lung
NCI-H522 lung = test system: NCI-H522 lung
OVCAR-3 ovarian = test system: OVCAR-3 ovarian
OVCAR-4 ovarian = test system: OVCAR-4 ovarian
OVCAR-5 ovarian = test system: OVCAR-5 ovarian
OVCAR-8 ovarian = test system: OVCAR-8 ovarian
RPMI-8226 leukemia = test system: RPMI-8226 leukemia
RXF-631 renal = test system: RXF-631 renal
SF-268 CNS = test system: SF-268 CNS
SF-295 CNS = test system: SF-295 CNS
SF-539 CNS = test system: SF-539 CNS
SK-MEL-2 melanoma = test system: SK-MEL-2 melanoma
SK-MEL-28 melanoma = test system: SK-MEL-28 melanoma
SK-MEL-5 melanoma = test system: SK-MEL-5 melanoma
SK-OV-3 ovarian = test system: SK-OV-3 ovarian
SN12C renal = test system: SN12C renal
SNB-19 CNS = test system: SNB-19 CNS
SNB-75 CNS = test system: SNB-75 CNS
SNB-78 CNS = test system: SNB-78 CNS
SR leukemia = test system: SR leukemia
SW-620 colon = test system: SW-620 colon
TK-10 renal = test system: TK-10 renal
U251 CNS = test system: U251 CNS
UACC-257 melanoma = test system: UACC-257 melanoma
UACC-62 melanoma = test system: UACC-62 melanoma
UO-31 renal = test system: UO-31 renal
XF 498 CNS = test system: XF 498 CNS
MCF7 breast = test system: MCF7 breast
NCI/ADR-RES ovarian = test system: NCI/ADR-RES ovarian
RXF 393 renal = test system: RXF 393 renal
SN12K1 renal = test system: SN12K1 renal

CN1CCCNCCN(CCc2ccccn2)CCCN(C)CC1 gave a TGI (786-0 renal) of 53.9 µM, a TGI (A498 renal) of over 100 µM and a TGI (A549 NSCLC) of over 100 µM. For the same compound, the TGI (ACHN renal) was over 100 µM, the TGI (CAKI-1 renal) was over 100 µM and the TGI (CCRF-CEM leukemia) was over 60 µM. It also gave a TGI (COLO 205 colon) of over 62.8 µM, a TGI (DLD-1 colon) of over 100 µM and a TGI (DMS 114 small cell lung) of over 58.2 µM. The TGI (DMS 273 small cell lung) was 81.5 µM, the TGI (EKVX NSCLC) was over 100 µM and the TGI (HCC-2998 colon) was over 100 µM. It also gave a TGI (HCT-116 colon) of over 100 µM, a TGI (HCT-15 colon) of over 62.6 µM and a TGI (HL-60(TB) leukemia) of over 63.6 µM. The TGI (HOP-18 NSCLC) was over 100 µM, the TGI (HOP-62 NSCLC) was over 100 µM and the TGI (HOP-92 NSCLC) was over 100 µM. For the same compound, the TGI (HT29 colon) was over 100 µM, the TGI (IGROV1 ovarian) was over 100 µM and the TGI (K-562 leukemia) was over 66.1 µM. For the same compound, the TGI (KM12 colon) was over 100 µM, the TGI (KM20L2 colon) was over 100 µM and the TGI (LOX IMVI melanoma) was over 79.1 µM. For the same compound, the TGI (LXFL 529 NSCLC) was over 100 µM, the TGI (M14 melanoma) was over 100 µM and the TGI (M19-MEL melanoma) was over 100 µM. It also gave a TGI (MALME-3M melanoma) of over 100 µM, a TGI (MOLT-4 leukemia) of over 100 µM and a TGI (NCI-H226 lung) of over 100 µM. The TGI (NCI-H23 lung) was over 100 µM, the TGI (NCI-H460 lung) was over 100 µM and the TGI (NCI-H522 lung) was over 100 µM. The TGI (OVCAR-3 ovarian) was over 100 µM, the TGI (OVCAR-4 ovarian) was over 100 µM and the TGI (OVCAR-5 ovarian) was over 100 µM. The TGI (OVCAR-8 ovarian) was over 100 µM, the TGI (RPMI-8226 leukemia) was over 70.4 µM and the TGI (RXF-631 renal) was over 100 µM. The TGI (SF-268 CNS) was over 100 µM, the TGI (SF-295 CNS) was over 100 µM and the TGI (SF-539 CNS) was over 100 µM. The TGI (SK-MEL-2 melanoma) was over 100 µM, the TGI (SK-MEL-28 melanoma) was over 100 µM and the TGI (SK-MEL-5 melanoma) was over 100 µM. It also gave a TGI (SK-OV-3 ovarian) of over 100 µM, a TGI (SN12C renal) of over 100 µM and a TGI (SNB-19 CNS) of over 100 µM. The TGI (SNB-75 CNS) was over 100 µM, the TGI (SNB-78 CNS) was over 100 µM and the TGI (SR leukemia) was 57.3 µM. For the same compound, the TGI (SW-620 colon) was over 53.6 µM, the TGI (TK-10 renal) was over 100 µM and the TGI (U251 CNS) was over 100 µM. The TGI (UACC-257 melanoma) was over 100 µM, the TGI (UACC-62 melanoma) was over 100 µM and the TGI (UO-31 renal) was over 100 µM. It also gave a TGI (XF 498 CNS) of over 100 µM.

C=C1CC(OC)(C(O)C(=O)N[C@H]2OCO[C@H]3C2O[C@H](C[C@@H](COC)OC)C(C)(C)C3OC)O[C@H](C)[C@@H]1C (some centres not stated) was tested, and the TGI (A498 renal) was under 0.00482 µM, the TGI (CCRF-CEM leukemia) was under 0.00482 µM and the TGI (COLO 205 colon) was under 0.00482 µM. For the same compound, the TGI (DLD-1 colon) was under 0.00482 µM, the TGI (DMS 114 small cell lung) was under 0.00482 µM and the TGI (EKVX NSCLC) was under 0.00482 µM. For the same compound, the TGI (HCC-2998 colon) was under 0.00482 µM, the TGI (HCT-116 colon) was under 0.00482 µM and the TGI (HCT-15 colon) was under 0.00482 µM. The TGI (HOP-18 NSCLC) was under 0.00482 µM, the TGI (HT29 colon) was under 0.00482 µM and the TGI (IGROV1 ovarian) was under 0.00482 µM. The TGI (K-562 leukemia) was under 0.00482 µM, the TGI (KM12 colon) was under 0.00482 µM and the TGI (KM20L2 colon) was under 0.00482 µM. The TGI (M19-MEL melanoma) was under 0.00482 µM, the TGI (MCF7 breast) was under 0.00482 µM and the TGI (NCI-H226 lung) was under 0.00482 µM. The TGI (NCI-H460 lung) was under 0.00482 µM, the TGI (NCI/ADR-RES ovarian) was under 0.00482 µM and the TGI (OVCAR-4 ovarian) was under 0.00482 µM. The TGI (RPMI-8226 leukemia) was under 0.00482 µM, the TGI (RXF 393 renal) was under 0.00482 µM and the TGI (SF-268 CNS) was under 0.00482 µM. It also gave a TGI (SF-295 CNS) of under 0.00482 µM, a TGI (SF-539 CNS) of under 0.00482 µM and a TGI (SK-MEL-28 melanoma) of under 0.00482 µM. For the same compound, the TGI (SK-MEL-5 melanoma) was under 0.00482 µM, the TGI (SN12C renal) was under 0.00482 µM and the TGI (SN12K1 renal) was under 0.00482 µM. The TGI (SNB-19 CNS) was under 0.00482 µM, the TGI (SNB-75 CNS) was under 0.00482 µM and the TGI (SNB-78 CNS) was under 0.00482 µM. For the same compound, the TGI (SW-620 colon) was 48.2 µM, the TGI (U251 CNS) was under 0.00482 µM and the TGI (UACC-257 melanoma) was under 0.00482 µM. For the same compound, the TGI (UACC-62 melanoma) was under 0.00482 µM, the TGI (UO-31 renal) was under 0.00482 µM and the TGI (XF 498 CNS) was under 0.00482 µM.

From PubChem BioAssay (NCI)
